What was measured:
[1] = target: T1, VEGFR2 (Homo sapiens, UniProt P35968); test: VEGFR2 cell-based assay (phospho-VEGFR2 ELISA, transfected CHO cells); details: compound at 100 nM, read-out: % VEGFR2 kinase activity remains
T1 construct: expressed in transfected cells; host or cells: CHO cells, pcDNA3.1 plasmid
Procedure, shortened: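 Serum-starved CHO cells transfected with full-length VEGFR2 treated 2 h with compound (0.5–500 nM), then stimulated with 20% FBS. Lysates analyzed by ELISA for phospho- and total VEGFR2 using streptavidin-HRP chemiluminescence.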

[2] = system: MDA-MB-231 human breast cancer cells; test: In vivo anti-tumor efficacy, MDA-MB-231 xenograft; details: Breast cancer MDA-MB-231, nu/nu Balb/c mice
Description: (§1) Female (nu/nu) Balb/c athymic mice at 4-6 weeks of age were injected subcutaneously (s.c.) with MDA-MB-231 human breast cancer cells, A549 human non-small cell lung cancer cells, U87-MG human glioblastoma cells, PC-3 human prostate cancer cells, HT-29 human colon cancer, BEL-7404 human hepatocellular carcinoma, or MKN-45 human gastric cancer cells (ATCC, 5×10^6 cells suspended in 100 μl DMEM medium). Treatment was initiated after the tumor mass grown from s.c. implanted tumor cells reached a median volume of 200-400 mm^3. Mice were randomized into groups with three in each group for small-sample efficacy tests such that the median tumor volume is nearly equal among all groups. For large-sample efficacy tests, mice were randomized into groups with thirteen or fourteen in each group. Each group was treated either with compounds (dissolved in 2:1 mixture of PEG400 and 0.01N HCl (v/v)) or without compounds (vehicle only, 2:1 mixture of PEG400 and 0.01N HCl (v/v)) once per day at dose 12.5, 25, 50 or 100 mg/kg by oral gavage. Tumor volumes were assessed at least twice weekly by caliper measurement from the start of treatment. Tumor volume was calculated using the formula ½×L×W^2 (L: length of tumor's long axis, W: length of tumor's short axis). Treatment was applied for at least two weeks or until the tumor volume reaches a size of ˜2500 mm^3 or greater. Mice were humanly sacrificed after the experiment.
The efficacy of compounds in reducing tumor growth was assessed by the index Tumor Growth Inhibition (TGI). TGI for a given treatment period was calculated using the group mean tumor volumes according to the formula: TGI=100×(VVehicle—group−VTreatment—group)÷VVehicle—group wherein VVehicle—group represents the mean tumor volume for the group treated with vehicle and VTreatment—group represents the mean tumor volume of the group treated with a compound.

[3] = system: MKN-45 human gastric cancer cells; test: In vivo anti-tumor efficacy, MKN-45 xenograft; details: Gastric cancer MKN-45, nu/nu Balb/c mice
Description: as §1, with “experiment. The efficacy of compounds in reducing tumor growth was assessed by the index Tumor Growth Inhibition (TGI). TGI for a given treatment period was calculated using the group mean tumor volumes according to the formula: TGI=100×(VVehicle—group−VTreatment—group)÷VVehicle—group wherein VVehicle—group represents the mean tumor volume for the group treated with vehicle and VTreatment—group represents the mean tumor volume of the group treated with a compound.” for “experiment.”

[4] = target: T2, c-Met (Homo sapiens, UniProt P08581); test: c-Met cell-based assay (phospho-c-Met ELISA, A549 cells); details: compound at 100 nM
T2 construct: endogenous in cells; host or cells: A549 cells
Procedure, shortened: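 Serum-starved A549 cells (NSCLC) pretreated 2 h with compound (0.5 nM to 500 nM), then stimulated 20 min with 20% FBS. Lysates analysed by ELISA for phospho-c-Met and total c-Met with streptavidin-HRP chemiluminescence.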

[5] = 50 mg/kg oral once per day, n = 2 × 3

T2 sequence (P08581 25-1390): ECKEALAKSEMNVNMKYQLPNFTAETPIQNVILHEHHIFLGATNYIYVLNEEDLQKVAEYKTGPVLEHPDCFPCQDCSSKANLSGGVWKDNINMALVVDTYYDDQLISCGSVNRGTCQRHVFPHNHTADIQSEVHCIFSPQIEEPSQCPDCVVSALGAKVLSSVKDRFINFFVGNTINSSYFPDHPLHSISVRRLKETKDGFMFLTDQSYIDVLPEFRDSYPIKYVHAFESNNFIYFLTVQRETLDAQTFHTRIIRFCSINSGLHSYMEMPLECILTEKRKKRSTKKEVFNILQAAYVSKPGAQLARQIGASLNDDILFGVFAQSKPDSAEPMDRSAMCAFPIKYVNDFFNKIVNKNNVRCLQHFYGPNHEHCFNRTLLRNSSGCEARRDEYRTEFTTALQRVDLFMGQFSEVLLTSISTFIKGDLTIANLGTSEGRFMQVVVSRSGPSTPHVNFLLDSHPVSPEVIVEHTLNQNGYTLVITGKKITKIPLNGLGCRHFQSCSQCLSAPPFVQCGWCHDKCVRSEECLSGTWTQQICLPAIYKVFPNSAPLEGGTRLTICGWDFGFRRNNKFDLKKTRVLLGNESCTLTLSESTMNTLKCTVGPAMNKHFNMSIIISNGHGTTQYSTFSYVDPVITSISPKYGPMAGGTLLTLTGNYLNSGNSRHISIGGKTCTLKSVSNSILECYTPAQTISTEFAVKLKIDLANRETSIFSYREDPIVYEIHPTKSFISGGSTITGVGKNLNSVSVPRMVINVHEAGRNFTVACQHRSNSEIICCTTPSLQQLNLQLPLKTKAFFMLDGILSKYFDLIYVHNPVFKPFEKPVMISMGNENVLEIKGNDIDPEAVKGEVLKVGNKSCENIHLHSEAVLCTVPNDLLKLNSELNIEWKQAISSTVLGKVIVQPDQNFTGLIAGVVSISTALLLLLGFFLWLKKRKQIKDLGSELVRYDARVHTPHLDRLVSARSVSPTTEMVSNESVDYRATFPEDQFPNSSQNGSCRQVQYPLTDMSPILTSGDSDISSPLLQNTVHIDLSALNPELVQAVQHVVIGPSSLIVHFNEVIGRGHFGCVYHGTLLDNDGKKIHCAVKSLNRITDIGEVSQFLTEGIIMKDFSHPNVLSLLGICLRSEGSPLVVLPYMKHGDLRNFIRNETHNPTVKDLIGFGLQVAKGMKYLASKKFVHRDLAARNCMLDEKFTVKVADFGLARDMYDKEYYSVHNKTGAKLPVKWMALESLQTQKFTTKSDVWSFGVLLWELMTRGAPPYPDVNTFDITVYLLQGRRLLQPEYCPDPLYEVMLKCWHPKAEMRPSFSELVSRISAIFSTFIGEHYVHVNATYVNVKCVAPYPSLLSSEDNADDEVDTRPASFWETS
T1 sequence (P35968 20-1356, species assumed): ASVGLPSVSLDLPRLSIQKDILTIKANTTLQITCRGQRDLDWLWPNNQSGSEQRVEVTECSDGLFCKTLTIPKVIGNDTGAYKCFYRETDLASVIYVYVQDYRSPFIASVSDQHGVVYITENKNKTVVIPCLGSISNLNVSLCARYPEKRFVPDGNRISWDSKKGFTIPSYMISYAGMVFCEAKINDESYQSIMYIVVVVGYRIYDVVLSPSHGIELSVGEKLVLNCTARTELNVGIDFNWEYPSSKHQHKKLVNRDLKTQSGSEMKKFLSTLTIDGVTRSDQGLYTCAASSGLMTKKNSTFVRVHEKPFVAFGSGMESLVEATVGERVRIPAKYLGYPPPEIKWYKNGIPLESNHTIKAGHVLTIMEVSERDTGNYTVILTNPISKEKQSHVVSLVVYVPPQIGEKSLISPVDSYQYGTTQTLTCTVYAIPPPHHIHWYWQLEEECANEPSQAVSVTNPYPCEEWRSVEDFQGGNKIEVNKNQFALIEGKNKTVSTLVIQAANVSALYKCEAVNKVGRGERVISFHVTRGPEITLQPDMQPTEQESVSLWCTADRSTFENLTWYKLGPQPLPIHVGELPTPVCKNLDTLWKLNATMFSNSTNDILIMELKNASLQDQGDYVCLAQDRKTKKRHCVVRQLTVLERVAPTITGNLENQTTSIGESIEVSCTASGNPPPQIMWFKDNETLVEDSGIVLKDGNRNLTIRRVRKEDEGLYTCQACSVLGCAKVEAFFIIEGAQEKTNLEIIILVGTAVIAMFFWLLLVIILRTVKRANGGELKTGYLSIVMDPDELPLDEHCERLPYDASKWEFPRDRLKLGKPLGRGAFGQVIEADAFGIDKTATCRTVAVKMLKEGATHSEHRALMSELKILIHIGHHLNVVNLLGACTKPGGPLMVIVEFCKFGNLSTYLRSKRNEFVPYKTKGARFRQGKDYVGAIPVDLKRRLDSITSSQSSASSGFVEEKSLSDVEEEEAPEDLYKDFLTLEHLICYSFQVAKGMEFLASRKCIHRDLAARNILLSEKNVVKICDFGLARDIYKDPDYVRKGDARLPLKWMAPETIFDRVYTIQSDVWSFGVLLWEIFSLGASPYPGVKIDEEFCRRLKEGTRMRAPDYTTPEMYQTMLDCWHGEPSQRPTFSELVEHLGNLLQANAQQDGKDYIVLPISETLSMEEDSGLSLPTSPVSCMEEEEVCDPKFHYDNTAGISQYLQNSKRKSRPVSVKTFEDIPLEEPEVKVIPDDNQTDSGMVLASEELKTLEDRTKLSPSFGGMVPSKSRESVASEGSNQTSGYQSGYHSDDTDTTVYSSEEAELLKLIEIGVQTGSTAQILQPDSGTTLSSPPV

Row | SMILES | remaining activity at 0.1 µM [1] [%] | Tumor Growth Inhibition (TGI) ([2]; 12.5 mg/kg oral once per day, n = 6 × 14) | Tumor Growth Inhibition (TGI) ([2]; 25 mg/kg oral once per day, n = 6 × 14) | Tumor Growth Inhibition (TGI) [2, 5] | Tumor Growth Inhibition (TGI) ([2]; 50 mg/kg oral once per day, n = 6 × 14) | Tumor Growth Inhibition (TGI) ([2]; 100 mg/kg oral once per day, n = 6 × 14) | Tumor Growth Inhibition (TGI) ([3]; 12.5 mg/kg oral once per day, n = 6 × 13) | Tumor Growth Inhibition (TGI) ([3]; 25 mg/kg oral once per day, n = 6 × 13) | Tumor Growth Inhibition (TGI) ([3]; 50 mg/kg oral once per day, n = 3 × 3) | Tumor Growth Inhibition (TGI) ([3]; 50 mg/kg oral once per day, n = 6 × 13) | Tumor Growth Inhibition (TGI) ([3]; 100 mg/kg oral once per day, n = 6 × 13) | % c-Met kinase activity remains [4] | Tumor Growth Inhibition (TGI) [3, 5]
1 | Cl.O=C(Nc1cc(Cl)ccc1F)Nc1cccc2c1ccn2Cc1ccnc2[nH]ccc12 [Example 56, 1-(2-Fluoro-5-chlorophenyl)-3-[1-(1H-pyrrolo[2,3-b]pyridin-4-ylmethyl)-1H-indol-4-yl]urea hydrochloride] | ≥ 70 | A (the TGI is greater or equal to 50%) | A (the TGI is greater or equal to 50%) | A (the TGI is greater or equal to 50%) | A (the TGI is greater or equal to 50%) | A (the TGI is greater or equal to 50%) | B (the TGI for the compound of this invention is between 0% and 50%) | A (the TGI is greater or equal to 50%) | A (the TGI is greater or equal to 50%) | A (the TGI is greater or equal to 50%) | A (the TGI is greater or equal to 50%) | A (the percentage of kinase activity remains is below 70%) | –
2 | Cl.O=C(Nc1cccc(C(F)(F)F)c1)Nc1cccc2c1ccn2Cc1ccnc2[nH]ccc12 [Example 51, 1-(3-Trifluoromethylphenyl)-3-[1-(1H-pyrrolo[2,3-b]pyridin-4-ylmethyl)-1H-indol-4-yl]urea hydrochloride] | < 70 | – | – | A (the TGI is greater or equal to 50%) | – | – | – | – | – | – | – | B (the percentage is greater or equal to 70%) | A (the TGI is greater or equal to 50%)

From patent publication US8648086B2, “5,6-bicyclic heteroaryl-containing urea compounds as kinase inhibitors” (Ascepion Pharmaceuticals, Inc., priority 2009, dated 2014)
